# “Also recorded” adds a separate entry of the source. Marks after values point to notes of the source that are not given here. Where a SMILES comes first, the peptide text is derived from it.
# Columns and labels:
# Format in all cases: cell-based
# [1] = MTT cytotoxicity test on keratinocytes; conditions: human, normal human epidermal keratinocytes, 50 to 500 μg/ml tested
# Experimental: C-X-C chemokines are well known for their chemotactic activity toward many cell types. […] The experiment was performed in the serum-free keratinocyte growth medium in the absence of supplement in order to restrain cells proliferation. The wounded area was examined by phase-contrast microscopy at the indicated times. […] At 20 μg/ml, the percentage of wound closure induced by SEQ IDs 1, 2, 3, 4, 5, 6 and 7 ranges from 165% to 240% compared to that of PBS treated which was taken as 100% (Table 1). […] To confirm that the peptides are not toxic to the keratinocytes at the concentrations tested for scratch wound closure all peptides were subjected to the MTT cytotoxicity test. None of the peptides were cytotoxic to normal skin keratinocyte in vitro after 24 hrs incubation at concentrations up to 500 ug/ml.
# To make sure the peptides are not cytotoxic to the cells, normal human epidermal keratinocytes were seeded to a 96-well plate. The plate was incubated at 37° C. in the presence of 5% CO2 to allow the cells to grow to >95% confluent. Peptides are diluted into stock solutions at concentrations of 50, 100, 200, and 500 μg/ml. The cell culture media are replaced with fresh media containing peptides at various concentrations then incubated at 37° C. and 5% CO2 for 24 hr. At the end of treatment the cell viability was measured using MTT assay kit purchased from ATCC (Manassas Va.).
# [2] = tested on: SOR-300-FT human psoriasis tissue construct; test: qPCR gene expression on SOR-300-FT psoriasis tissue
# Text: SOR-300-FT, developed by MatTek Corporation (Ashland Mass.), is a highly differentiated in vitro psoriasis tissue comprised of normal, human-derived keratinocytes and psoriatic fibroblasts Morphologically, the tissue is of uniform thickness and it expresses increased levels of hyperproliferated cells as well as pro-inflammatory markers such as psoriasin, elafin, human beta-defensin-2, and LL-37 etc (Ayehunie et al., 2012). The pro-inflammatory condition of the tissue prompts us to test the inventive peptides to see if they modulate the inflammatory response. Due to the high cost of the tissue model, a representative peptide SEQ ID NO 1, HB2233, was selected as a proof of concept study using SOR-300-FT tissue model. The SOR-300-FT tissues were treated with HB2233 in duplicate at 200 μg/ml. Total 12 gene markers associated with psoriasis condition are studied. […] Both HB2233 and calcipotriol down-regulate Ki67 expression which is responsible for the hyperproliferation and early maturation of keratinocytes in psoriasis skin.
# SOR-300-FT™ tissues were transferred to 6-well plates containing 0.9 ml of pre-warmed assay medium and equilibrated to standard culture conditions (37° C., 5% CO2) for 1 hour. After the 1 hr equilibration, the tissues were re-fed with fresh medium as follow: 1) for the 24 hr time point, tissues were feed with 0.9 ml of medium and 2) for time points >24 hr, tissues were feed with 5 ml of culture medium by placing the cell culture inserts on top of the washers (Part # EPI-WSHR, MatTek Corporation). Next, 50 μl of the test articles were applied topically to the psoriatic tissues (n=3) and the test article was added to the culture medium at the 3 concentrations chosen by the Sponsor. At times 24, and 48 hours: a) the tissues were rinsed topically 3× with 300-400 μL of PBS, b) the inserts containing the tissues were held tightly with sterile forceps and the test article was rinsed gently by immersing the insert into PBS and decant medium from insert, and c) fresh test article was re-applied to the tissue immediately after rinsing and decanting (50 μL topically). Analysis was performed at t=72 hr (3× repeat applications). cDNA was generated using the Qiagen RT2 First Strand Kit (cat#330401). Relative gene expression was measured using Qiagen RT2 SYBR Green qPCR Mastermix (cat#330502) and Qiagen RT2 primers. Analysis was carried out using Bio-Rad CFX software.
# [3] = tested on: S. aureus LTA induced IL-6 expression on human skin keratinocytes; test: Blocking LTA induced IL-6 expression (ELISA); conditions: LTA 10 ug/ml pre-incubated with peptide 50 μg/ml 30 min, 24 hrs
# Text: The Gram-positive cell wall component peptidoglycan (PGN) is well known to stimulate pro-inflammatory cytokine expression. Lipoteichoic acid (LTA) is the key molecule in PGN that causes a concentration- and time-dependent increase in pro-inflammatory signals including nitric oxide synthase (iNOS), cyclooxygenase-2 (COX-2), IL-1 beta, TNF-alpha and IL-6 up-regulation (Lin et al., 2010). We therefore pretreated LTA with the inventive peptides and then assess the IL-6 stimulatory activity upon contact with human skin keratinocytes. […] It is very likely that the positively charged residues of the tetrapeptides bind to the negatively charged LTA thus blocking the interaction of LTA with its receptors. This is significant as bacterial cell wall components have been implicated in inflammatory skin conditions such as acne, rosacea, atopic dermatitis etc.
# S. aureus LTA induced IL-6 stimulation on human epidermal keratinocytes. Human keratinocytes were grown to >80% confluence in serum free keratinocyte cultural media. S. aureus LTA 10 ug/ml was pre-incubated with each peptide (50 μg/ml) at room temperature for 30 min then the mixture was transferred to keratinocyte culture. The treatment was allowed for 24 hrs. The supernatant was removed. […]
# [4] = tested on: human umbilical vein endothelial cells (HUVEC); test: In vitro angiogenesis assay (capillary tube formation); design: key to Promote tube formation 3 hrs / Promote tube formation 5 hrs: 0: Individual cells, well separated; 1: Cells begin to migrate and align themselves; 2: Capillary tubes visible, no sprouting; 3: Sprouting of new capillary tubes visible; 4: Closed polygons begin to form; 5: Complex mesh like structures develop
# Text: Angiogenesis, the formation of new capillaries from the pre-existing vascular network, is an essential step of wound repair. The peptides generated in the current invention, SEQ ID NOs 1-7, also stimulate capillary tube formation. The in vitro angiogenesis assay uses human umbilical vein endothelial cells (HUVEC) to measurer a series of events that lead to forming new capillary tubes. Upon induction, the HUVEC undergoes migration to align then sprouting from individual cells. The sprouting event leads to formation of new capillary tubes which further develop to form closed polygons. Eventually a complex mesh like structure is developed. Human cathelicidin peptide, LL-37, is a well-studied example to promote angiogenesis. It is used as positive control in the assessment. […] Compared to LL-37, SEQ ID NOs.
# The angiogenesis assay was performed using the In Vitra Angiogenesis Assay Kit purchased from Millipore. Briefly, matrix layer was prepared with ECMATRIX™ solution according to the manufacturer's instructions. The human umbilical vein endothelial cells (HUVEC) (ATCC, Manassas, Va.) were cultured in complete F12K medium (ATCC, Manassas, Va.) supplemented with 0.1 mg/ml of heparin (Sigma-Aldrich), 30 ug/ml of ECGS (Sigma-Aldrich) and 10% fetal bovine serum (ATCC, Manassas, Va.). The cells were harvested and resuspended in complete media. The peptide was mixed with cells at approximately 5×10^3-1×10^4 cells per well in a 96-well plate prior to seeding cells onto the surface of the polymerized ECMATRIX™ solution. The plate was incubated at […], 5% CO2 for up to 9-12 hr. Tube formation was inspected under an inverted light microscope periodically and pictures were taken at 3 and 5 hr intervals and assigned a numerical value to each pattern as shown below.
# [5] = 72 hr, HB2233 at 200 μg/ml, listed as calcipotriol
molecule,measurement,setting,value
"CC[C@H](C)[C@H](N)C(=O)N[C@@H](CCC(=O)O)C(=O)N[C@@H](CCCCN)C(=O)N[C@H](C(=O)O)[C@@H](C)CC [HB2270, IEKI] (H-IEKI-OH; N-terminus and C-terminus assumed)",CC50 at 24 h,[1],> 500 µg/mL
"C=C1/C(=C\C=C2/CCC[C@]3(C)[C@@H]([C@H](C)/C=C/[C@@H](O)C4CC4)CC[C@@H]23)C[C@@H](O)C[C@@H]1O [Calcipotriol, calcipotriol]",downregulation of HBD-2,"[2]; 72 hr treatment, qPCR",9.0 fold
same,downregulation of psoriasin,"[2]; 72 hr treatment, qPCR",2.3 fold
same,Fold change in gene expression: Calgranulin C,"[2]; 72 hr, HB2233 at 200 μg/ml",−1.3 fold
same,Fold change in gene expression: ENA-78,"[2]; 72 hr, HB2233 at 200 μg/ml",1.6 fold
same,Fold change in gene expression: Elafin,"[2]; 72 hr, HB2233 at 200 μg/ml",−1.4 fold
same,Fold change in gene expression: GRO alpha,"[2]; 72 hr, HB2233 at 200 μg/ml",1.3 fold
same,Fold change in gene expression: HBD-2,"[2]; 72 hr, HB2233 at 200 μg/ml",−9.0 fold
same,Fold change in gene expression: IL-8,"[2]; 72 hr, HB2233 at 200 μg/ml",1.3 fold
same,Fold change in gene expression: Ki-67,"[2]; 72 hr, HB2233 at 200 μg/ml",−1.1 fold
same,Fold change in gene expression: LL-37,"[2]; 72 hr, HB2233 at 200 μg/ml",5.1 fold
same,Fold change in gene expression: P63,"[2]; 72 hr, HB2233 at 200 μg/ml",−1.4 fold
same,Fold change in gene expression: Psoriasin,"[2]; 72 hr, HB2233 at 200 μg/ml",−2.3 fold
same,Fold change in gene expression: SLPI,"[2]; 72 hr, HB2233 at 200 μg/ml",2.1 fold
same,Fold change in gene expression: Transglutaminase,"[2]; 72 hr, HB2233 at 200 μg/ml",1.5 fold
same,Fold change in gene expression: ENA-78,[2]; [5],does not seem to affect
same,Fold change in gene expression: GRO alpha,[2]; [5],does not seem to affect
same,Fold change in gene expression: Ki-67,[2]; [5],down-regulate
Lipoteichoic acid [LTA alone],IL-6 expression (arbitrary),[3],1.248 arbitrary
"CC[C@H](C)[C@H](N)C(=O)N[C@@H](CCC(N)=O)C(=O)N[C@@H](CCCCN)C(=O)N[C@H](C(=O)O)[C@@H](C)CC [HB2271, IQKI] (H-IQKI-OH; N-terminus and C-terminus assumed)",CC50 at 24 h,[1],> 500 µg/mL
"CC[C@H](C)[C@H](N)C(=O)N[C@@H](CCCCN)C(=O)N[C@@H](CCCCN)C(=O)N[C@@H](Cc1c[nH]c2ccccc12)C(=O)O [HB2272, IKKW] (H-IKKW-OH; N-terminus and C-terminus assumed)",CC50 at 24 h,[1],> 500 µg/mL
"CC[C@H](C)[C@H](N)C(=O)N[C@@H](CCC(=O)O)C(=O)N[C@@H](CCCCN)C(=O)N[C@@H](CCSC)C(=O)O [HB2233, IEKM] (H-IEKM-OH)",CC50 at 24 h,[1],> 500 µg/mL
"CC[C@H](C)[C@H](N)C(=O)N[C@@H](CCCCN)C(=O)N[C@@H](CCCCN)C(=O)N[C@H](C(=O)O)C(C)C [HB2273, IKKV] (H-IKKV-OH; N-terminus and C-terminus assumed)",CC50 at 24 h,[1],> 500 µg/mL
"LL-37 (LLGDFFRKSKEKIGKEFKRIVQRIKDFLRNLVPRTES; Antibacterial peptide LL-37; UniProt P49913 134-170, looked up) [Human cathelicidin peptide, used as positive control to promote angiogenesis]",capillary tube formation on HUVEC (in words),[4]; 3 and 5 hr treatment,"sprouting of new capillary tubes becomes visible just after 3 hr; also recorded: After 5 hr treatment with LL-37, the closed polygons are formed; also recorded: also stimulate angiogenesis"
same,Promote tube formation 3 hrs,"[4]; 3 hrs, values ≥3 considered significant induction of angiogenesis",3*
same,Promote tube formation 5 hrs,"[4]; 5 hrs, values ≥3 considered significant induction of angiogenesis",4*
"CC(C)[C@H](N)C(=O)N[C@@H](CCC(=O)O)C(=O)N[C@@H](CCCCN)C(=O)N[C@@H](Cc1ccccc1)C(=O)O [HB2267, VEKF] (H-VEKF-OH; N-terminus and C-terminus assumed)",CC50 at 24 h,[1],> 500 µg/mL
"CC[C@H](C)[C@H](N)C(=O)N[C@@H](CCCCN)C(=O)N[C@@H](CCCCN)C(=O)N[C@@H](CC(C)C)C(=O)O [HB2274, IKKL] (H-IKKL-OH; N-terminus and C-terminus assumed)",CC50 at 24 h,[1],> 500 µg/mL

# From patent US10195245B2, “Tetrapeptides derived from human C-X-C chemokines useful for treatment of various skin conditions” (Helix Biomedix, Inc., priority 2013, dated 2019)
